Source: US20080014149A1, “Methods and Compositions for Imaging and Biomedical Applications” (priority 2004, published 2008)
Read-outs that look alike come from different tables or passages of the source. One block for each substance: values may come before it.

Legend:
[1] = Imaging DTT with 19b and 25 in agarose gels (MRI); conditions: 0.5 mM in 2% agarose hydrogels, 50 mM DTT, vials filled with PBS
Protocol: The T2/T1 quenching detectable constructs 19b and 25 are loaded into 2% agarose hydrogels at a concentration of 0.5 mM. The hydrogels have a volume of 0.5 ml and are made in 10 ml scintillation vials. After the hydrogels form, the vials are filled with PBS buffer, pH 7.4, and then imaged in either a 9.4 Tesla MRI machine or a 17.8 Tesla MRI machine (University of Florida). The best TR/TE parameters are selected from calculations using the spin-echo signal equation with respect to the relaxation times and the TR/TE. The TE and TR are chosen such that the signal intensity of the hydrogels loaded with 19b and 25 is lower than or equal to pure agarose hydrogels. These calculations are based on the R1 and R2 of 19b and 25. DTT is added to the scintillation vials to generate a 50 mM concentration of DTT in the vials. The control hydrogels for this experiment consist of hydrogels that contain 50 mM DTT, without 19b or 25. The signal intensity of the gels is measured every hour for 48 hours. The T1 and the T2 of the gels is measured every hour, the T1 is measured using an inversion recovery sequence, for which the sequence parameters will be selected based on the values of R1 and R2 of 19b and 25. The T2 will be measured using a Carr-Purcell-Meiboom-Gill (CPMG) sequence with TEs chosen from the values of R2 for 19b and 25 (Haacke 1999).

[2] = R1 and R2 relaxivity from water T1/T2 measurements by NMR; assay type: physicochemical; conditions: for R1: deuterium oxide, Unity-600 MHz, 25±0.1° C.
Protocol: The R2 and R1 of 19a and 18a were calculated to show cleavage of the T2/T1 quenching detectable construct 19a generated a large enough change in R2 to allow for enzyme detection. The compound 19a represents an intact T2/T1 quenching detectable construct and the compound 18a represents a polymeric gadolinium detectable construct remainder resulting from cleavage of the reaction region. The R1 and R2 of 19a and 18a were measured in deuterium oxide in a Unity-600 MHz (Varian, Inc.) at 25±0.1° C. T1 and T2 measurements of water relaxation times were measured at various concentrations of 19a and 18a, and a plot of 1/T1 and 1/T2 was made against the concentration; the relaxivities R1 and R2 were determined by the slope of this graph using equation 1 (Caravan 1991), [formula] where 1/T1 is the relaxation rate of the water proton induced by the paramagnetic and diamagnetic species present in solution, and 1/T1 (diamagnetic) is the relaxation rate in the absence of the paramagnetic species. R1 and R2 of 18a were calculated to be 3.34 mM^−1s^− and 6.8 mM^−1s^−1 and the R1 and R2 of 19a were 4.0 mM^−1s^−1 and 21.77 mM^−1s^−1 (see FIG. 19).

[3] = tested on: MMP-7 expressing SW480mat xenograft tumors; test: In vivo imaging of MMP-7 activity in mouse xenograft tumors (MRI); parameters: species or system athymic nude mice; conditions: expectation; mice with MMP-7 expressing tumors, 9.4 Tesla
Excerpt: MMP-7 activity is imaged in athymic nude mice which have been given MMP-7 expressing xenograft tumors, using the T2/T1 quenching detectable construct, gadolinium-PEG-RPLALWRSC-dysprosium (46, FIG. 26). This compound contains a reaction region that is the MMP-7 cleavage site, RPLALWRSC, (SEQ ID NO: 2). […] See FIG. 26 for the synthesis of 46.
The resulting tumors are allowed to grow up to a size of 1-2 cm (4-6 weeks). During this period, the mice are imaged at various times points ranging from 3 days to 6 weeks after the injection of the tumor cells, according to the following procedure: after proper anesthetization, a catheter is inserted into the tail vein of the mice, a composition comprising the detectable construct 46 is injected through the catheter and the mice are imaged every hour for 24 hours in a 9.4 Tesla MRI machine (Emory University), measuring the MRI signal intensity, tissue T1 and tissue T2.
The signal intensity and T2 of the MMP-7 expressing tumors is compared against the control tumors. If the signal intensity of the MMP-7 expressing tumors is greater than the controls, then MMP-7 successfully cleaved 46, resulting in an increase in MRJ signal intensity and the imaging of MMP-7. Furthermore, data is obtained relating to the sensitivity of the method to image early tumor activity, as well as ratiometric information relating to tumor growth.

MMP-9 = MMP-9 (Homo sapiens, UniProt P14780); test: Imaging MMP-9 with 40 and 42 in agarose gels (MRI); assay type: biochemical; conditions: agarose hydrogels
Sequence of MMP-9 (P14780 94-707, species assumed): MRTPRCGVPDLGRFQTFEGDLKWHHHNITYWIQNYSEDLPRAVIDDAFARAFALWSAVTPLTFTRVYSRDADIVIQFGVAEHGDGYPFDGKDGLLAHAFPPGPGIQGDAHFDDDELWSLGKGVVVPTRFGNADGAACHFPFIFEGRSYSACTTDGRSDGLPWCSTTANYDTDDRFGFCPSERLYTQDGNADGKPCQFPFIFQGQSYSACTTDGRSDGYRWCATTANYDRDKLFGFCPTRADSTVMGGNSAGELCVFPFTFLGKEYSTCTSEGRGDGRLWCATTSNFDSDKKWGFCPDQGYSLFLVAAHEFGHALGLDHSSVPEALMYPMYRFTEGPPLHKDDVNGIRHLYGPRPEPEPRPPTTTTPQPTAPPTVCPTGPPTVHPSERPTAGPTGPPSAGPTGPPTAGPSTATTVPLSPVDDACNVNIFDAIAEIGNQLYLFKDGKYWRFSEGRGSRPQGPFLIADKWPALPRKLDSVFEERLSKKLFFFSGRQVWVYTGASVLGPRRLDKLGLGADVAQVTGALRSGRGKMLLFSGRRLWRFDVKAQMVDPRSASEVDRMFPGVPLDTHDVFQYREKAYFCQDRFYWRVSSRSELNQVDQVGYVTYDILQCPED

[4] = Imaging DTT with 33 in agarose hydrogels (MRI); conditions: vials not filled with buffer
Protocol: An experimental procedure similar to that outlined in Example 4 is used to image DTT, except that the hydrogels are loaded with compound 33. The scintillation vials which contain the gels are not filled with buffer. This ensured that the cleaved dysprosium remains in the gel and that changes in T2 and signal intensity are due to changes in the rotational correlation time of dysprosium. The DTT is directly added to hydrogels as a concentrated solution. The gels are analyzed in a manner similar to Example 4. The control for this experiment is agarose hydrogels that just contain DTT. […] Problems with synthesis of 33 due to its high polydispersity may result from the free radical polymerization used to generate 28. This problem can be solved by using atom transfer radical polymerization (ATRP) to synthesize 28, using a protected methacrylic acid monomer and an (ATRP) initiator with a functional handle.

[5] = Diffusion coefficient in water (literature); assay type: physicochemical
Excerpt: Another example of a detectable construct of the present invention is shown in FIG. 15, wherein the detectable construct comprises a first detectable agent, comprising a metal ion and a chelator, covalently bonded to a linking region comprising PEG(polyethylene glycol) MW 80 kD, which is covalently bonded to a reaction region that is a substrate that can be cleaved by an enzyme or chemical process, which is covalently bonded to a second detectable agent comprising a chelator and a metal ion. In this particular example, the first detectable agent is Gadolinium associated with the chelator DTPA, and the second detectable agent is Dysprosium associated with the chelator DTPA. This detectable construct can be used in a method based upon the counteracting effects of T1 and T2 contrast agents on MRI signal intensity. Gadolinium is the T1 contrast agent and dysprosium is the T2 contrast agent. The dysprosium detectable agent is connected to the PEG chain through a cleavable linkage, such as a disulfide bond or an enzyme cleavable peptide linkage. Cleavage of 3a generates a low molecular weight dysprosium detectable construct remainder (4) and a high molecular weight PEG gadolinium detectable construct remainder. […]
At present, tumors can only be detected after they reach mm-cm dimensions. […]

[6] = in water, cited from earlier work
[7] = Water exchange rate of dysprosium chelate; assay type: physicochemical
Excerpt: This is a derivative form of DTPA. The chelator molecule of this example is considered a modification of the detectable detectable agent, wherein the chelator molecule has substitutions. The R2 of dysprosium chelates is inversely proportional to the water exchange rate, particularly for macromolecular dysprosium chelates at high field strengths (Vander 2002 and Caravan 2001) The dysprosium chelate detectable construct remainder in 25 has a greater R2 than the dysprosium chelate detectable construct remainder in 19b and also generates a larger change in tissue T2 after cleavage and diffusion away from the polymeric gadolinium detectable construct remainder. The R1 and R2 of 25 is determined using a 600 MHz NMR machine as described in Example 2.

[8] = tested on: trypsin Dy only detectable construct (cleavable PEG-peptide-dysprosium, FIG. 24)
[9] = tested on: T1, PEG-Peptide-DTPA-Dy containing MMP-7 substrate peptide-DTPA
T1 sequence: RPLALWRSGCG

[10] = listed as DTPA-Dy detectable construct remainder

Substance: Gadolinium-PEG-S—S-Dysprosium [Compound 19b]
MRI signal intensity of agarose gels after addition of DTT [1]: increases the signal intensity

Substance: Thiol-PEG-DTPA-Gd [Compound 18a]
R1 [2]: 3.34 mM⁻¹ s⁻¹

Substance: gadolinium-PEG-RPLALWRSC-dysprosium [Compound 46]
MRI signal intensity on cleavage by MMP-7 [3]: increase in MRI signal intensity

MRI signal intensity on cleavage by MMP-9 (MMP-9): increased signal intensity
Substance: gadolinium-poly(methacrylic acid)-Pro-Val-Gly-Leu-Ile-Gly-dysprosium [Compound 42]

Substance: Gadolinium-Poly(Methacrylic Acid)-PEG-S—S-Dysprosium [Compound 33]
MRI signal intensity of agarose gels after addition of DTT [4]: increases the signal intensity

ratio of diffusion coefficient to that of PEG 80 kD [5]: 17 fold
ratio of diffusion coefficient to that of PEG 80 kD [5, 10]: roughly 17 fold
Substance: dysprosium-diethylenetriaminepentaacetic (DTPA) [DTPA-dysprosium]
diffusion coefficient Dwater [6]: 3.8×10^−6 cm^2/s
diffusion coefficient Dwater [6, 10]: approximately 3.8×10^−6 cm^2/s

MRI signal intensity on cleavage by MMP-9 (MMP-9): increase in signal intensity
Substance: gadolinium-PEG-Pro-Val-Gly-Leu-Ile-Gly-dysprosium [Compound 40]

Substance: Gadolinium-PEG-S—S-Dysprosium-Diamide [Compound 25]
water exchange rate τm, times lower than the dysprosium chelate in 19b [7]: 34 times
MRI signal intensity of agarose gels after addition of DTT [1]: increases the signal intensity

Substance: trypsin
water T2 (400 MHz NMR in D2O), construct 16 mg/ml, trypsin 0.025 mg/ml [8]: After adding trypsin, T2 increases by 52.3%

Substance: Gadolinium-PEG-S—S-Dysprosium [Compound 19a]
decrease in R1 between 19a and 18a ([2]; 19a versus 18a): 16.5%
R1 [2]: 4.0 mM⁻¹ s⁻¹

Substance: MMP-7
T2 signal (NMR in D2O buffer, 37 C, 4.5 hours) [9]: upon treatment of micelles with MMP-7 that the T2 signal increase by over two-fold
